Source: patent US4533665A, “[[Bis(aryl)methylene]-1-piperidinyl]alkyl-pyrimidinones” (Janssen Pharmaceutica, priority 1984, dated 1985)
Structures can show the parent of a compound that is named as a salt.

Molecular target: T1, S2-receptor (Rattus norvegicus, UniProt P14842)
T1 construct: Caudal arteries from fasted male rats; from tissue; host or cells: rat caudal artery, helical strips
Assay: antagonistic activity on the effect of serotonin on the caudal artery of the rat (caudal artery test)
Conditions: rat caudal artery strips; serotonin 40 ng/ml; 5 minutes after adding the drug; read-out: ED50 (minimal concentration which reduces the amplitude of the serotonin-induced contraction to at least 50% of its normal value) (converted)
Experimental: ANTAGONISTIC ACTIVITY ON THE EFFECT OF SEROTONIN ON THE CAUDAL ARTERY OF THE RAT
Caudal arteries from fasted male rats (210-235 g) were used in the test. […] Submaximal contractions of the arterial strips were produced by adding single doses of serotonin (40 ng/ml) to the organ bath for 2 minutes with each time an interval of 10 minutes. The amplitude of the contraction was measured before and 5 minutes after adding the drug. After washing out, the agonist was added again three times in order to see whether the contraction was restored and normalized. […] In this connection the ED50 -values are the minimal concentrations of the concerned drugs which reduce the amplitude of the contraction to at least 50% of its normal value.

T1 sequence (P14842 whole entry): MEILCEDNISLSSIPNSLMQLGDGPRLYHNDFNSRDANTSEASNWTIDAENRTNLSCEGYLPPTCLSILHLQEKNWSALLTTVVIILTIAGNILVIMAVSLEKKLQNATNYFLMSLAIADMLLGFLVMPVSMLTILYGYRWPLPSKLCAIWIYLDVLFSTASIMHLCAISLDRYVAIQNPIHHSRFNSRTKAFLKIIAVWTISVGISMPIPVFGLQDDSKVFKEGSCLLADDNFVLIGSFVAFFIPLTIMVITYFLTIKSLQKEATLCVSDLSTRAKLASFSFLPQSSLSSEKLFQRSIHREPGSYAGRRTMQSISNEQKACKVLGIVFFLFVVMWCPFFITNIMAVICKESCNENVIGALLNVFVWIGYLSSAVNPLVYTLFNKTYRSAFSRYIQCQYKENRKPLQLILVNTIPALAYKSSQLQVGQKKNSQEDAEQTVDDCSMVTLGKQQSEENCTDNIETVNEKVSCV

SMILES	IC50 [pM]
Cc1nc2n(c(=O)c1CCN1CCC(=C(c3ccccc3)c3ccc(O)cc3)CC1)CCS2 [Compound 73]	5.44
Cc1ccn2c(=O)c(CCN3CCC(=C(c4ccc(F)cc4)c4ccc(F)cc4)CC3)c(C)nc2c1 [Compound 59]	0.659
Cc1nc2ccccn2c(=O)c1CCN1CCC(=C(c2ccc(F)cc2)c2cccc(Cl)c2)CC1 [Compound 16]	1.29
Cc1cccc(C(=C2CCN(CCc3c(C)nc4scc(C)n4c3=O)CC2)c2ccccc2)c1 [Compound 68]	0.681
Cc1nc2sc(C)c(C)n2c(=O)c1CCN1CCC(=C(c2ccc(F)cc2)c2ccc(F)cc2)CC1 [Compound 127]	0.633
Cc1nc2ccccn2c(=O)c1CCN1CCC(=C(c2ccc(F)cc2)c2cccc(F)c2)CC1 [Compound 36]	0.679
COc1ccc(C(=C2CCN(CCc3c(C)nc4n(c3=O)CCCS4)CC2)c2ccc(F)cc2)cc1 [Compound 145, 7-[2-[4-[(4-fluorophenyl)(4-methoxyphenyl)methylene]-1-piperidinyl]ethyl]-3,4-dihydro-8-methyl-2H,6H-pyrimido[2,1-b][1,3]thiazin-6-one dihydrochloride]	2.25
Cc1nc2n(c(=O)c1CCN1CCC(=C(c3ccc(O)cc3)c3ccc(F)cc3)CC1)CCCS2 [Compound 37]	2.64
Cc1nc2n(c(=O)c1CCN1CCC(=C(c3ccc(F)cc3)c3cccc(C(F)(F)F)c3)CC1)CCCS2 [Compound 120]	1.03
Cc1nc2sccn2c(=O)c1CCN1CCC(=C(c2ccccc2)c2cccc(C(F)(F)F)c2)CC1 [Compound 89]	< 4.91
Cc1nc2n(c(=O)c1CCN1CCC(=C(c3ccc(Cl)cc3)c3ccc(Cl)cc3)CC1)CCS2 [Compound 110, 6-[2-[4-[bis(4-chlorophenyl)methylene]-1-piperidinyl]ethyl]-2,3-dihydro-7-methyl-5H-thiazolo[3,2-a]pyrimidin-5-one]	2.54
Cc1cccc(C(=C2CCN(CCc3c(C)nc4n(c3=O)CCCS4)CC2)c2ccccc2)c1 [Compound 70]	1.19
Cc1ccc(C(=C2CCN(CCc3c(C)nc4n(c3=O)CCCC4)CC2)c2ccccc2)cc1 [Compound 71]	0.705
Cc1nc2ccccn2c(=O)c1CCN1CCC(=C(c2ccc(F)cc2)c2cccc(C(F)(F)F)c2)CC1 [Compound 31]	4.79
Cc1nc2n(c(=O)c1CCN1CCC(=C(c3ccc(F)cc3)c3cccc(F)c3)CC1)CCS2 [Compound 28]	1.17
Cc1nc2n(c(=O)c1CCN1CCC(=C(c3ccc(F)cc3)c3cccc(Cl)c3)CC1)CCS2 [Compound 5]	0.323
Cc1ccc(C(=C2CCN(CCc3c(C)nc4ccccn4c3=O)CC2)c2ccc(F)cc2)cc1 [Compound 41]	0.684
Cc1nc2n(c(=O)c1CCN1CCC(=C(c3ccc(F)cc3)c3ccc(Cl)cc3)CC1)CCS2 [Compound 22]	2.62
Cc1nc2scc(C)n2c(=O)c1CCN1CCC(=C(c2ccc(F)cc2)c2cccc(Cl)c2)CC1 [Compound 7]	1.24
Cc1ccc(C(=C2CCN(CCc3c(C)nc4sccn4c3=O)CC2)c2ccccc2)cc1 [Compound 66]	0.158

SMILES	IC50 [pM]
Cc1nc2scc(C)n2c(=O)c1CCN1CCC(=C(c2ccccc2)c2cccc(C(F)(F)F)c2)CC1 [Compound 85]	< 4.77
Cc1nc2sccn2c(=O)c1CCN1CCC(=C(c2ccccc2)c2ccc(O)cc2)CC1 [Compound 80]	2.84
Cc1ccc(C(=C2CCN(CCc3c(C)nc4scc(C)n4c3=O)CC2)c2ccccc2)cc1 [Compound 129]	0.49
Cc1nc2scc(C)n2c(=O)c1CCN1CCC(=C(c2ccccc2)c2ccc(O)cc2)CC1 [Compound 72]	1.51
Cc1cccc(C(=C2CCN(CCc3c(C)nc4scc(C)n4c3=O)CC2)c2ccc(F)cc2)c1 [Compound 122]	0.656
Cc1nc2ccccn2c(=O)c1CCN1CCC(=C(c2ccc(F)cc2)c2ccc(Cl)cc2)CC1 [Compound 13]	2.56
Cc1nc2scc(C)n2c(=O)c1CCN1CCC(=C(c2ccc(F)cc2)c2ccc(Br)cc2)CC1 [Compound 32]	2.35
Cc1nc2n(c(=O)c1CCN1CCC(=C(c3ccccc3)c3cccc(C(F)(F)F)c3)CC1)CCS2 [Compound 90]	1.39
Cc1nc2sccn2c(=O)c1CCN1CCC(=C(c2ccc(Cl)cc2)c2ccc(Cl)cc2)CC1 [Compound 48]	4.31
COc1ccc(C(=C2CCN(CCc3c(C)nc4sccn4c3=O)CC2)c2ccc(F)cc2)cc1 [Compound 144, 6-[2-[4-[(4-fluorophenyl)(4-methoxyphenyl)methylene]-1-piperidinyl]ethyl]-7-methyl-5H-thiazolo[3,2-a]pyrimidin-5-one monohydrochloride]	1.06
COC1CN(CCc2c(C)nc3ccccn3c2=O)CCC1=C(c1ccc(F)cc1)c1ccc(F)cc1 (stereo not drawn) [Compound 62]	5.58
Cc1ccc(C(=C2CCN(CCc3c(C)nc4n(c3=O)CCS4)CC2)c2ccc(F)cc2)cc1 [Compound 47]	0.673
Cc1nc2ccc(Cl)cn2c(=O)c1CCN1CCC(=C(c2ccc(F)cc2)c2ccc(F)cc2)CC1 [Compound 51]	1.4
Cc1nc2sccn2c(=O)c1CCN1CCC(=C(c2ccc(F)cc2)c2cccc(Cl)c2)CC1 [Compound 6]	1.28
Cc1nc2n(c(=O)c1CCN1CCC(=C(c3ccc(F)cc3)c3ccc(Br)cc3)CC1)CCS2 [Compound 44]	1.04
Cc1nc2n(c(=O)c1CCN1CCC(=C(c3ccccc3)c3ccccc3)CC1)CCS2 [Compound 107, 6-[2-[4-(diphenylmethylene)-1-piperidinyl]ethyl]-2,3-dihydro-7-methyl-5H-thiazolo[3,2-a]pyrimidin-5-one dihydrochloride]	1.08
Cc1nc2n(c(=O)c1CCN1CCC(=C(c3ccc(Cl)cc3)c3ccc(Cl)cc3)CC1)CCCC2 [Compound 52]	1.4
Cc1nc2scc(C)n2c(=O)c1CCN1CCC(=C(c2ccccc2)c2ccccc2)CC1 [Compound 105, 6-[2-[4-(diphenylmethylene)-1-piperidinyl]ethyl]-3,7-dimethyl-5H-thiazolo[3,2-a]pyrimidin-5-one]	0.702
Cc1nc2ccccn2c(=O)c1CCN1CCC(=C(c2ccc(F)cc2)c2ccc(F)cc2)CC1 [Compound 2]	2.76
Cc1ccc(C(=C2CCN(CCc3c(C)nc4n(c3=O)CCCS4)CC2)c2ccccc2)cc1 [Compound 128]	0.678

SMILES	IC50 [pM]
Cc1ccc(C(=C2CCN(CCc3c(C)nc4sccn4c3=O)CC2)c2ccc(F)cc2)cc1 [Compound 49]	0.676
Cc1ccc(C(=C2CCN(CCc3c(C)nc4n(c3=O)CCCC4)CC2)c2ccc(F)cc2)cc1 [Compound 42]	4.66
Cc1nc2sccn2c(=O)c1CCN1CCC(=C(c2ccc(F)cc2)c2cccc(C(F)(F)F)c2)CC1 [Compound 21]	1.19
Cc1nc2sccn2c(=O)c1CCN1CCC(=C(c2ccccc2)c2ccc(F)cc2)CC1 [Compound 139, 6-[2-[4-[(4-fluorophenyl)phenylmethylene]-1-piperidinyl]ethyl]-7-methyl-5H-thiazolo[3,2-a]pyrimidin-5-one monohydrochloride]	0.323
Cc1nc2ccccn2c(=O)c1CCN1CCC(=C(c2ccc(F)cc2)c2ccc(Br)cc2)CC1 [Compound 45]	2.44
Cc1nc2ccccn2c(=O)c1CCN1CCC(=C(c2ccc(F)cc2)c2ccc(F)cc2)CC1 [Compound 58]	1.34
Cc1ccc(C(=C2CCN(CCc3c(C)nc4n(c3=O)CCCS4)CC2)c2ccc(C)cc2)cc1 [Compound 108, 7-[2-[4-[bis(4-methylphenyl)methylene]-1-piperidinyl]ethyl]-3,4-dihydro-8-methyl-2H,6H-pyrimido[2,1-b][1,3]thiazin-6-one]	2.68
Cc1nc2scc(C)n2c(=O)c1CCN1CCC(=C(c2ccc(F)cc2)c2cccc(C(F)(F)F)c2)CC1 [Compound 119]	2.31
Cc1nc2scc(C)n2c(=O)c1CCN1CCC(=C(c2ccc(F)cc2)c2cccc(F)c2)CC1 [Compound 27]	0.651
Cc1nc2n(c(=O)c1CCN1CCC(=C(c3ccc(F)cc3)c3ccc(F)cc3)CC1)CCCC2 [Compound 3]	1.18
Cc1nc2n(c(=O)c1CCN1CCC(=C(c3ccccc3)c3cccc(C(F)(F)F)c3)CC1)CCCC2 [Compound 86]	0.63
Cc1nc2sccn2c(=O)c1CCN1CCC(=C(c2ccc(F)cc2)c2ccc(Cl)cc2)CC1 [Compound 9]	< 1.28
Cc1ccc(C(=C2CCN(CCc3c(C)nc4n(c3=O)CCS4)CC2)c2ccccc2)cc1 [Compound 130]	0.175
Cc1ccc(C(=C2CCN(CCc3c(C)nc4n(c3=O)CCCC4)CC2)c2ccc(F)cc2)cc1 [Compound 46]	2.76
Cc1nc2n(c(=O)c1CCN1CCC(=C(c3ccc(O)cc3)c3ccc(F)cc3)CC1)CCCC2 [Compound 39]	1.33
Cc1ccc(C(=C2CCN(CCc3c(C)nc4ccccn4c3=O)CC2)c2ccc(C)cc2)cc1 [Compound 43]	1.53
Cc1nc2n(c(=O)c1CCN1CCC(=C(c3ccc(F)cc3)c3ccc(F)cc3)CC1)CCCS2 [Compound 114]	1.13
Cc1nc2n(c(=O)c1CCN1CCC(=C(c3ccccc3)c3ccc(F)cc3)CC1)CCCC2 [Compound 137, 3-[2-[4-[(4-fluorophenyl)phenylmethylene]-1-piperidinyl]ethyl]-6,7,8,9-tetrahydro-2-methyl-4H-pyrido[1,2-a]pyrimidin-4-one dihydrochloride]	2.45
Cc1nc2n(c(=O)c1CCN1CCC(=C(c3ccc(F)cc3)c3cccnc3)CC1)CCCC2 [Compound 54]	6.11
Cc1nc2ccccn2c(=O)c1CCN1CCC(=C(c2ccccc2)c2ccc(O)cc2)CC1 [Compound 78]	2.88
